ChEMBL document CHEMBL4610049, “Structural modification of the aryl sulfonate ester of cjoc42 for enhanced gankyrin binding and anti-cancer activity” (Bioorg Med Chem Lett, 2020)
The source made the active and inactive calls. The calls are words filed in the database; no cut-off is given here.

Legend:
HepG2 [1] = assay: Antiproliferative activity against human HepG2 cells assessed as reduction in cell viability incubated for 72 hrs by MTT assay; format: functional, cell-based; conditions: HepG2, 72 h
Hep 3B2 [2] = assay: Antiproliferative activity against human Hep3B cells assessed as reduction in cell viability incubated for 72 hrs by MTT assay; format: functional, cell-based
[3] = target: T1, 26S proteasome non-ATPase regulatory subunit 10 (Homo sapiens) (UniProt O75832); assay: Binding affinity to gankyrin (unknown origin) assessed as fold increase in change in melting temperature at 300 uM by thermal shift assay relative to control
T1 sequence (whole entry): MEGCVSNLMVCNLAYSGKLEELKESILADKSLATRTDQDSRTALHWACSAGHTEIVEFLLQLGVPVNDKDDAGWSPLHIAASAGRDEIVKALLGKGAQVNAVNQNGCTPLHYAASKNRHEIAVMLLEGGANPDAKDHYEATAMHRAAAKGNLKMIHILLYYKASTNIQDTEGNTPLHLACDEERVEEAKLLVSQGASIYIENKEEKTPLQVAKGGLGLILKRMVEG

Hep 3B2 [4] = assay: Antiproliferative activity against human Hep3B cells assessed as reduction in cell viability at 50 uM incubated for 72 hrs by MTT assay relative to control; format: functional
HepG2 [5] = assay: Antiproliferative activity against human HepG2 cells assessed as reduction in cell viability at 50 uM incubated for 72 hrs by MTT assay relative to control; format: functional; conditions: HepG2, 72 h

COC(=O)c1ccc(-n2cc(CCCOS(=O)(=O)c3ccc(-c4ccccc4)cc3)nn2)cc1 gave an IC50 (HepG2 [1]) of 46.2 µM, an IC50 (Hep 3B2 [2]) of 26 µM and a fold change (FC) [3] of 2.3.

In the case of COC(=O)c1ccc(-n2cc(CCCOS(=O)(=O)c3ccccc3C)nn2)cc1, the IC50 (HepG2 [1]) is reported as > 50 µM, the IC50 (Hep 3B2 [2]) is reported as > 50 µM and the inhibition at 50 µM (Hep 3B2 [4]) is reported as 0%. It also gave a fold change (FC) [3] of 2 and an inhibition at 50 µM (HepG2 [5]) of 0%.

COC(=O)c1ccc(-n2cc(CCCOS(=O)(=O)c3cccc(OC)c3)nn2)cc1 gave an IC50 (HepG2 [1]) of 36.9 µM, an IC50 (Hep 3B2 [2]) of 20.9 µM and a fold change (FC) [3] of 1.9.

COC(=O)c1ccc(-n2cc(CCCOS(=O)(=O)c3ccc(C#N)cc3)nn2)cc1 was tested, and the Activity [3] was “Active”.

COC(=O)c1ccc(-n2cc(CCCOS(=O)(=O)c3cccc(Cl)c3)nn2)cc1 was tested, and the Activity [3] was “inactive”.

CCc1cccc(S(=O)(=O)OCCCc2cn(-c3ccc(C(=O)OC)cc3)nn2)c1 was tested, and the Activity [3] was “inactive”.

With COC(=O)c1ccc(-n2cc(CCCOS(=O)(=O)c3ccc(I)cc3)nn2)cc1 the IC50 (HepG2 [1]) was 17.5 µM, the IC50 (Hep 3B2 [2]) was 25.3 µM and the fold change (FC) [3] was 1.7.

With COC(=O)c1ccc(-n2cc(CCCOS(=O)(=O)c3ccc(C(C)C)cc3)nn2)cc1 the Activity [3] was “inactive”.

In the case of CCc1ccc(S(=O)(=O)OCCCc2cn(-c3ccc(C(=O)OC)cc3)nn2)cc1, the Activity [3] is reported as “Active”.

In the case of COC(=O)c1ccc(-n2cc(CCCOS(=O)(=O)c3ccc(OC)cc3)nn2)cc1, the Activity [3] is reported as “Active”.

In the case of COC(=O)c1ccc(-n2cc(CCCOS(=O)(=O)c3ccc(C)cc3)nn2)cc1, the IC50 (HepG2 [1]) is reported as > 50 µM, the IC50 (Hep 3B2 [2]) is reported as > 50 µM and the inhibition at 50 µM (Hep 3B2 [4]) is reported as 0%. For the same compound, the Activity [3] was “Active” and the inhibition at 50 µM (HepG2 [5]) was 0%.

With CNC(=O)c1ccc(S(=O)(=O)OCCCc2cn(-c3ccc(C(=O)OC)cc3)nn2)cc1 the Activity [3] was “inactive”.

COC(=O)c1ccc(-n2cc(CCCOS(=O)(=O)c3cccc(C)c3)nn2)cc1 was tested, and the Activity [3] was “inactive”.

With COC(=O)c1ccc(-n2cc(CCCOS(=O)(=O)c3cccc(F)c3)nn2)cc1 the IC50 (HepG2 [1]) was > 50 µM, the IC50 (Hep 3B2 [2]) was > 50 µM and the inhibition at 50 µM (Hep 3B2 [4]) was 0%. It also gave a fold change (FC) [3] of 1.4 and an inhibition at 50 µM (HepG2 [5]) of 0%.

With COC(=O)c1ccc(-n2cc(CCCOS(=O)(=O)c3cccc(C#N)c3)nn2)cc1 the Activity [3] was “Active”.

In the case of COC(=O)c1ccc(-n2cc(CCCOS(=O)(=O)c3ccccc3)nn2)cc1, the Activity [3] is reported as “inactive”.

With COC(=O)c1ccc(-n2cc(CCCOS(=O)(=O)c3ccc(C(=O)OC)cc3)nn2)cc1 the Activity [3] was “Active”.

With COC(=O)c1ccc(-n2cc(CCCOS(=O)(=O)c3cccc(C(=O)OC)c3)nn2)cc1 the Activity [3] was “inactive”.
